Test results as given in patent US9309242B2, “Substituted pyrido[2,3-b]pyrazines as FGFR kinase inhibitors” (priority 2011, dated 2016).

Experiments:
[1] = biological target: T1, Ba/F3-FGFR3-transfected cells (Homo sapiens, UniProt P22607); test: Ba/F3-FGFR3 (minus IL3) cellular proliferation assay, Alamar Blue; type: cell-based
T1 construct: BAF3-FGFR3 (MIN IL3) pIC50; other: minus IL3
Procedure, shortened: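 Viability readout was resazurin reduction (ex 540/em 590 nm) after 4 h, following 24 h compound treatment at 37 °C of FGFR3-transfected Ba/F3 cells (20000/well, RPMI-1640/10% FBS). IL3-dependent counterscreen used identical conditions plus 10 ng/ml murine IL3.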

[2] = test system: Ba/F3-KDR-transfected cells; test: Ba/F3-KDR (plus IL3) cellular proliferation assay, counterscreen with 10 ng/ml murine IL3; type: cell-based; conditions: plus IL3 (10 ng/ml murine IL3, counterscreen); read-out: BAF3-KDR (PLUS IL3) pIC50 (converted)
Procedure, shortened: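 Ba/F3-KDR cells (20000 per well) in phenol red-free RPMI-1640 with 10% FBS were exposed to compound for 24 hours at 37° C, 5% CO2. Alamar Blue (resazurin) was then added for 4 hours, and fluorescence was read at ex. 540 nm/em. 590 nm.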

[3] = biological target: T2, Ba/F3-FGFR1-transfected cells (Homo sapiens, UniProt P11362); test: Ba/F3-FGFR1 (minus IL3) cellular proliferation assay, Alamar Blue; type: cell-based
T2 construct: BAF3-FGFR1 (MIN IL3) pIC50; other: minus IL3
Procedure, shortened: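 Viability was measured by resazurin reduction (fluorescence, 540 nm excitation/590 nm emission) after a 4 h Alamar Blue incubation. This followed 24 h of compound treatment at 37 °C, 5% CO2, of 20000 FGFR1-transfected Ba/F3 cells per well in 10% FBS RPMI-1640.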

T2 sequence (P11362 whole entry, change not shown): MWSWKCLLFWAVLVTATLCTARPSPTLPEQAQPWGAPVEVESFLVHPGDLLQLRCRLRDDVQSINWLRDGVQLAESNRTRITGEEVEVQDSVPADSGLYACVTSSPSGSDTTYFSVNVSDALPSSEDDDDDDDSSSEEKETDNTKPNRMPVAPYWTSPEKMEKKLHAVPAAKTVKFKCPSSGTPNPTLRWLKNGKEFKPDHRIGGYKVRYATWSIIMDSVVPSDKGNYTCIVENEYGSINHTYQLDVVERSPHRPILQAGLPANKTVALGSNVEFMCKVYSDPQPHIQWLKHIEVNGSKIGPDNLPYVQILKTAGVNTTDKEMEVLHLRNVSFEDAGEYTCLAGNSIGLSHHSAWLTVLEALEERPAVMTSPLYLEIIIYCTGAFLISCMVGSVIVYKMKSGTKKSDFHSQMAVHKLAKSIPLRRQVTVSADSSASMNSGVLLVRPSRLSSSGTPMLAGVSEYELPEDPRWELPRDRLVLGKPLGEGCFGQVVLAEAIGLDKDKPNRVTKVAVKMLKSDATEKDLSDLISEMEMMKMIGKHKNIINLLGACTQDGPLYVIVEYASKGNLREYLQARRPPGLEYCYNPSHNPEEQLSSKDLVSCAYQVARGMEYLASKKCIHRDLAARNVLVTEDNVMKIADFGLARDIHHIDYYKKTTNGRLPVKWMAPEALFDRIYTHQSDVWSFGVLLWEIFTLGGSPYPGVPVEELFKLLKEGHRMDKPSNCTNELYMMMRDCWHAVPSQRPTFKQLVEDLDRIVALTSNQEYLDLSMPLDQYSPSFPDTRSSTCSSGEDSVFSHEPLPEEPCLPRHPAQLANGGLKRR
T1 sequence (P22607 whole entry, change not shown): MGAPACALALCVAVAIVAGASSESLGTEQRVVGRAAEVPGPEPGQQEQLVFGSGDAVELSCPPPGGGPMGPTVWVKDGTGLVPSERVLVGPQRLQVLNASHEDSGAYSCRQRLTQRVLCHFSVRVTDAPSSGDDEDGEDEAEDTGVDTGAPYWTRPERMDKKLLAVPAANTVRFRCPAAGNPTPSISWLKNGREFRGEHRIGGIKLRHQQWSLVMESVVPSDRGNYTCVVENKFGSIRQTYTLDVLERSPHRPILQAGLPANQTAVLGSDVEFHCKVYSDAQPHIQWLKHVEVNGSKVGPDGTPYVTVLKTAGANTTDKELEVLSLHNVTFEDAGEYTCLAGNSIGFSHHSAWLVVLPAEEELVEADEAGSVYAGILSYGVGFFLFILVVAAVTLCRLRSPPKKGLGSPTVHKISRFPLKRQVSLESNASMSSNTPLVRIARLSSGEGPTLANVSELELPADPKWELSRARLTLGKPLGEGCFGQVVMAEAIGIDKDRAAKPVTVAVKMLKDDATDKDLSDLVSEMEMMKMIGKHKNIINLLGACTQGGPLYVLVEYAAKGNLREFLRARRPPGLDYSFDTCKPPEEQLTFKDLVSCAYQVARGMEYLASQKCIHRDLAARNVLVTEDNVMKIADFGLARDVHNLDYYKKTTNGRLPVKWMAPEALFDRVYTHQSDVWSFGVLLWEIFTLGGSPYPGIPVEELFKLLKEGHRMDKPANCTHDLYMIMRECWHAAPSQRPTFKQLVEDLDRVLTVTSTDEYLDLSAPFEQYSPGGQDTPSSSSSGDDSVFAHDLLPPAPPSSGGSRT

## COCC(O)Cn1/c(=N/c2cc(OC)cc(OC)c2F)ccc2ncc(-c3cnn(C)c3)nc21 (single isomer, unassigned) [Compound 60]
[1]
  BAF3-FGFR3 (MIN IL3) pIC50: 8.15
[2]
  IC50: > 10 µM
other
  melting point: 114 °C
[3]
  BAF3-FGFR1 (MIN IL3) pIC50: 8.43

## COc1cc(OC)c(F)c(N(CC(O)COC(C)C)c2ccc3ncc(-c4cnn(CC(O)COC(C)C)c4)nc3n2)c1 (single isomer, unassigned) [Compound 252]
[1]
  BAF3-FGFR3 (MIN IL3) pIC50: 7.42
[2]
  IC50: > 10 µM
other
  melting point: 60 °C
[3]
  BAF3-FGFR1 (MIN IL3) pIC50: 7.14

## COc1cc(OC)c(F)c(N(C)c2ccc3ncc(-c4cnn(C)c4)nc3n2)c1F (single isomer, unassigned) [Compound 254]
[1]
  BAF3-FGFR3 (MIN IL3) pIC50: 8.08
[2]
  IC50: > 10 µM
other
  melting point: 210 °C
[3]
  BAF3-FGFR1 (MIN IL3) pIC50: 7.67

## COc1cc(OC)c(F)c(/N=c2\ccc3ncc(-c4cnn(C)c4)nc3n2C)c1F (single isomer, unassigned) [Compound 255]
[1]
  BAF3-FGFR3 (MIN IL3) pIC50: 8.38
[2]
  IC50: > 10 µM
other
  melting point: 199 °C
[3]
  BAF3-FGFR1 (MIN IL3) pIC50: 7.93

## COc1cc(OC)c(F)c(/N=c2\ccc3ncc(-c4cnn(C)c4)nc3n2CC2CC2)c1F (single isomer, unassigned) [Compound 267]
[1]
  BAF3-FGFR3 (MIN IL3) pIC50: 8.16
[2]
  IC50: > 10 µM
other
  melting point: 195 °C
[3]
  BAF3-FGFR1 (MIN IL3) pIC50: 7.98

## CNC(=O)c1cc(F)cc(N(Cc2ncc[nH]2)c2ccc3ncc(-c4cnn(C)c4)nc3n2)c1 [Compound 261]
[1]
  BAF3-FGFR3 (MIN IL3) pIC50: ~7.74
[2]
  IC50: > 10 µM
other
  melting point: 180 °C
[3]
  BAF3-FGFR1 (MIN IL3) pIC50: 7.61

## COc1cc(OC)c(F)c(N(CCS(C)(=O)=O)c2ccc3ncc(-c4cnn(CCS(C)(=O)=O)c4)nc3n2)c1 [Compound 266]
[1]
  BAF3-FGFR3 (MIN IL3) pIC50: 6.35
[2]
  IC50: > 10 µM
other
  melting point: 180 °C
[3]
  BAF3-FGFR1 (MIN IL3) pIC50: 6.29

## COc1cc(OC)cc(N(CCS(C)(=O)=O)c2ccc3ncc(-c4cnn(CCS(C)(=O)=O)c4)nc3n2)c1 [Compound 275]
[1]
  BAF3-FGFR3 (MIN IL3) pIC50: 5.80
[2]
  IC50: > 10 µM
other
  melting point: 172 °C
[3]
  BAF3-FGFR1 (MIN IL3) pIC50: 5.64

## COc1cc(OC)cc(N(Cc2nnc(NCCO)o2)c2ccc3ncc(-c4cnn(C)c4)nc3n2)c1 [Compound 282]
[1]
  BAF3-FGFR3 (MIN IL3) pIC50: <5
[2]
  IC50: > 10 µM
other
  melting point: 104 °C
[3]
  BAF3-FGFR1 (MIN IL3) pIC50: <5

## CNCCn1ccnc1CN(c1ccc2ncc(-c3cnn(C)c3)nc2n1)c1cc(OC)cc(OC)c1F [Compound 289]
[1]
  BAF3-FGFR3 (MIN IL3) pIC50: 6.92
[2]
  IC50: > 10 µM
other
  melting point: 92 °C
[3]
  BAF3-FGFR1 (MIN IL3) pIC50: 6.66

## COc1cc(OC)c(F)c(N(Cc2ncc[nH]2)c2ccc3ncc(-c4cnn(CCCN)c4)nc3n2)c1 [Compound 295]
[1]
  BAF3-FGFR3 (MIN IL3) pIC50: 8.17
[2]
  IC50: > 10 µM
[3]
  BAF3-FGFR1 (MIN IL3) pIC50: 8.47

## COc1cc(OC)c(F)c(N(Cc2noc(C)n2)c2ccc3ncc(-c4cnn(C)c4)nc3n2)c1 [Compound 297]
[1]
  BAF3-FGFR3 (MIN IL3) pIC50: 7.69
[2]
  IC50: > 10 µM
[3]
  BAF3-FGFR1 (MIN IL3) pIC50: 7.70

## COc1cc(OC)c(F)c(N(CC2CCC(=O)N2)c2ccc3ncc(-c4cnn(C5CNC5)c4)nc3n2)c1 (stereo not shown) [Compound 299]
[1]
  BAF3-FGFR3 (MIN IL3) pIC50: 5.94
[2]
  IC50: > 10 µM
[3]
  BAF3-FGFR1 (MIN IL3) pIC50: 6.05
